Patent publication US10988524B2, “Modified relaxin B chain peptides and their therapeutic use” (priority 2018, dated 2021)
Like-named read-outs stand apart in the source and are kept apart here. Non-standard residues stand in square brackets, D forms with d. Residues, ends and D or L forms follow the SMILES beside them. Phe(4-F) = N[C@@H](Cc1ccc(F)cc1)C(=O)O; Nle = CCCC[C@H](N)C(=O)O; Aib = CC(C)(N)C(=O)O

Key:
[1] = Solubility testing of peptides in buffer; assay type: physicochemical
[2] = target: T1, RXFP1 (Homo sapiens, UniProt Q9HBX9); test: OVCAR5 cAMP assay (RXFP1 agonist activity, HTRF); conditions: for Emax: OVCAR-5, read-out: cAMP assay in OVCAR 5 cells Emax, maximal intracellular cAMP relative to H2-relaxin in the same test occasion; for EC50: cAMP assay in OVCAR 5 cells EC50 (nM), OVCAR5 cells expressing endogenous RXFP1, cAMP by HTRF, 30 min at 37° C., 1 mM IBMX
T1 sequence (Q9HBX9 1-757): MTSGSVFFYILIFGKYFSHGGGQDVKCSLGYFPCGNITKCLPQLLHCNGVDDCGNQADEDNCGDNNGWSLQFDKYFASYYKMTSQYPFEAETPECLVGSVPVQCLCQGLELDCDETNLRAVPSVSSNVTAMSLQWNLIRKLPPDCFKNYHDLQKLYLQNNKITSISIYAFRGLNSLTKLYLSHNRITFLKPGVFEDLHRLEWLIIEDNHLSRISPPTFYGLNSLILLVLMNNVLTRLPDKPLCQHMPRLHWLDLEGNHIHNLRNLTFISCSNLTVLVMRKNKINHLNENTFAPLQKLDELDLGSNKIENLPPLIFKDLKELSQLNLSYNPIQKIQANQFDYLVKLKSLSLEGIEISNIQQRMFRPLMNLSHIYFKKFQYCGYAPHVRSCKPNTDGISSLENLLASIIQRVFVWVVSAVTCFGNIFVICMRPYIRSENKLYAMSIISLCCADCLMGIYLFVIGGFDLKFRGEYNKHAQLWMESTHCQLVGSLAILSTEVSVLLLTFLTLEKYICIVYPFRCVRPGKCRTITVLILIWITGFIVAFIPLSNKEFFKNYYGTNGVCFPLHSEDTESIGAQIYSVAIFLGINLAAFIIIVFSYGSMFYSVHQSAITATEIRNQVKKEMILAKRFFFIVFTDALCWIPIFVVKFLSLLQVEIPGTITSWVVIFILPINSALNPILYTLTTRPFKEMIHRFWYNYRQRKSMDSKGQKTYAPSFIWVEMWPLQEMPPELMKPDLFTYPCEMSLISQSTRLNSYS

[3] = Stability in human plasma; assay type: in vitro ADME; conditions: 37° C.; for Human Plasma stability % remaining, T = 0: 5 μM; for remaining at 1 h, 5 μM / remaining at 4 h, 5 μM: human plasma (sodium or lithium heparin)
Method: (§1) Prior to the testing of stability in plasma of a peptide batch, its purity (HPLC-UV) was determined.
(§2) Rat and Human plasma: anti-coagulant sodium or lithium heparin.
(§3) 100 μM solution of study compound in 50 mM Phosphate buffer pH 7.4.
(§4) 950 μL plasma is pre-incubated for 5 min at 37° C. 50 μL of compound stock solution is added. Final compound concentration=5 μM. Vortex and transfer 1504, plasma into an Eppendorf for each time point. The time points 0-1 and −4 h are carried out in duplicate for each species.
(§5) After incubation extract 1504, plasma with 6004, Acetonitrile containing with 1% TFA. Vortex and centrifuge 10 min at 14600 rpm. Dry 2004, supernatant under N2. Reconstitute sample in 200 μL of H2O/CH3CN 98/2+0.1% FA+50 ng/ml Labetalol and analyze using the analytical system used in solubility and stability studies.
(§6) For determination of the amount of the remaining peptide, the peak areas of the target compound at t0 and each time point […] were compared, resulting in “% remaining peptide”, following the equation
(§7) % remaining peptide=[(peak area peptide time)×100]/peak area peptide t0. The stability is expressed as “% remaining peptide”.

[4] = Stability in rat plasma; assay type: in vitro ADME; conditions: 37° C.; for Rat plasma stability % remaining, T = 0: 5 μM; for remaining at 1 h, 5 μM / remaining at 4 h, 5 μM: rat plasma (sodium or lithium heparin)
Method: as §1, §2, §3, §4, §5, §6, §7

[5] = Phosphate buffer 50 mM pH 7.4, target solubility 2.0 mg/ml, ~19 h, read-out: Solubility phosphate buffer pH 7.4

Compound: CCCC[C@H](NC(=O)CNC(=O)[C@H](CCC(=O)O)NC(=O)C(C)(C)NC(=O)C(C)(C)NC(=O)[C@@H](NC(=O)[C@H](CCC(N)=O)NC(=O)[C@H](C)NC(=O)[C@H](CCCNC(=N)N)NC(=O)[C@@H](NC(=O)[C@H](CCCCN)NC(=O)[C@H](CCC(=O)O)NC(=O)[C@H](CCCNC(=N)N)NC(=O)CNC(=O)[C@H](CCC(=O)O)NC(=O)[C@H](CC(C)C)NC(C)=O)C(C)C)[C@@H](C)CC)C(=O)N[C@@H](CO)C(=O)N[C@H](C(=O)N[C@@H](Cc1c[nH]c2ccccc12)C(=O)N[C@@H](CO)C(=O)NC(C)(C)C(=O)N[C@@H](CCCNC(=N)N)C(=O)N[C@@H](CCCCN)C(=O)N[C@@H](CCCCN)C(N)=O)[C@@H](C)O [compound 3] (Ac-LEGREKVRAQI[Aib][Aib]EG[Nle]STWS[Aib]RKK-NH2)
- solubility ([1]; Acetate buffer 50 mM pH 4.5, target solubility 3.0 mg/ml, ~19 h, read-out: Solubility Acetate buffer pH 4.5): ≥ 3300 µg/mL
- solubility ([1]; Phosphate buffer 50 mM pH 7.4, target solubility 3.0 mg/ml, ~19 h, read-out: Solubility phosphate buffer pH 7.4): ≥ 2900 µg/mL
- Emax [2]: 97%
- Human Plasma stability % remaining, T = 0 [3]: 100%
- remaining at 1 h, 5 μM [3]: 85%
- remaining at 4 h, 5 μM [3]: 64%
- Rat plasma stability % remaining, T = 0 [4]: 100%
- remaining at 1 h, 5 μM [4]: 78%
- remaining at 4 h, 5 μM [4]: 55%

Compound: CC[C@H](C)[C@H](NC(=O)[C@H](CCC(N)=O)NC(=O)[C@H](C)NC(=O)[C@H](CCCNC(=N)N)NC(=O)[C@@H](NC(=O)[C@H](CCCCN)NC(=O)[C@H](CCC(=O)O)NC(=O)[C@H](CCCNC(=N)N)NC(=O)CNC(=O)[C@H](CCC(=O)O)NC(=O)[C@H](CC(C)C)NC(C)=O)C(C)C)C(=O)NC(C)(C)C(=O)NC(C)(C)C(=O)N[C@@H](CCC(=O)O)C(=O)NCC(=O)N[C@@H](CCSC)C(=O)N[C@@H](CO)C(=O)N[C@H](C(=O)N[C@@H](Cc1c[nH]c2ccccc12)C(=O)N[C@@H](CO)C(=O)NC(C)(C)C(=O)N[C@@H](CCCNC(=N)N)C(=O)N[C@@H](CCCCN)C(=O)N[C@@H](CCCCN)C(N)=O)[C@@H](C)O [compound 4] (Ac-LEGREKVRAQI[Aib][Aib]EGMSTWS[Aib]RKK-NH2)
- solubility ([1]; acetate buffer, pH 4.5, read-out: Solubility Acetate buffer pH 4.5): ≥ 6100 µg/mL
- solubility ([1]; phosphate buffer, pH 7.4, read-out: Solubility phosphate buffer pH 7.4): ≥ 5800 µg/mL
- Emax [2]: 99%
- Human Plasma stability % remaining, T = 0 [3]: 100%
- remaining at 1 h, 5 μM [3]: 95%
- remaining at 4 h, 5 μM [3]: 93%
- Rat plasma stability % remaining, T = 0 [4]: 100%
- remaining at 1 h, 5 μM [4]: 91%
- remaining at 4 h, 5 μM [4]: 101%

Compound: CCCC[C@H](NC(=O)CNC(=O)[C@H](CCC(=O)O)NC(=O)C(C)(C)NC(=O)C(C)(C)NC(=O)[C@@H](NC(=O)[C@H](CCC(N)=O)NC(=O)[C@H](C)NC(=O)[C@H](CCCNC(=N)N)NC(=O)[C@@H](NC(=O)[C@H](CCCCN)NC(=O)[C@H](CCC(=O)O)NC(=O)[C@H](CCCNC(=N)N)NC(=O)CNC(=O)[C@H](CCC(=O)O)NC(=O)[C@H](CC(C)C)NC(C)=O)C(C)C)[C@@H](C)CC)C(=O)N[C@@H](CO)C(=O)N[C@@H](CCC(N)=O)C(=O)N[C@@H](Cc1c[nH]c2ccccc12)C(=O)N[C@@H](CO)C(=O)NC(C)(C)C(=O)N[C@@H](CCCNC(=N)N)C(=O)N[C@@H](CCCNC(=N)N)C(=O)N[C@@H](CCCNC(=N)N)C(N)=O [compound 52] (Ac-LEGREKVRAQI[Aib][Aib]EG[Nle]SQWS[Aib]RRR-NH2)
- solubility [1, 5]: ≥ 2300 µg/mL
- Emax [2]: 94%
- EC50 [2]: ≤ 10 nM

Compound: CCCC[C@H](NC(=O)CNC(=O)[C@H](CCC(=O)O)NC(=O)C(C)(C)NC(=O)C(C)(C)NC(=O)[C@@H](NC(=O)[C@H](CCC(N)=O)NC(=O)[C@H](C)NC(=O)[C@H](CCCNC(=N)N)NC(=O)[C@@H](NC(=O)[C@H](CCCCN)NC(=O)[C@H](CCC(=O)O)NC(=O)[C@H](CCCNC(=N)N)NC(=O)CNC(=O)[C@H](CCC(=O)O)NC(=O)[C@H](CC(C)C)NC(C)=O)C(C)C)[C@@H](C)CC)C(=O)N[C@@H](CO)C(=O)N[C@H](C(=O)N[C@@H](Cc1ccc(O)cc1)C(=O)N[C@@H](CO)C(=O)NC(C)(C)C(=O)N[C@@H](CCCNC(=N)N)C(=O)N[C@@H](CCCCN)C(=O)N[C@@H](CCCCN)C(N)=O)[C@@H](C)O [compound 53] (Ac-LEGREKVRAQI[Aib][Aib]EG[Nle]STYS[Aib]RKK-NH2)
- solubility [1, 5]: ≥ 2100 µg/mL
- Emax [2]: 75%

Compound: CC[C@H](C)[C@H](NC(=O)[C@H](CCC(N)=O)NC(=O)[C@H](C)NC(=O)[C@H](CCCNC(=N)N)NC(=O)[C@@H](NC(=O)[C@H](CCCCN)NC(=O)[C@H](CCC(=O)O)NC(=O)[C@H](CCCNC(=N)N)NC(=O)CNC(=O)[C@H](CCC(=O)O)NC(=O)[C@H](CC(C)C)NC(C)=O)C(C)C)C(=O)NC(C)(C)C(=O)NC(C)(C)C(=O)N[C@@H](CCC(=O)O)C(=O)NCC(=O)N[C@@H](CCC(N)=O)C(=O)N[C@@H](CO)C(=O)N[C@H](C(=O)N[C@@H](Cc1c[nH]c2ccccc12)C(=O)N[C@@H](CO)C(=O)NC(C)(C)C(=O)N[C@@H](CCCNC(=N)N)C(=O)N[C@@H](CCCCN)C(=O)N[C@@H](CCCCN)C(N)=O)[C@@H](C)O [compound 54] (Ac-LEGREKVRAQI[Aib][Aib]EGQSTWS[Aib]RKK-NH2)
- solubility [1, 5]: ≥ 2400 µg/mL
- cAMP assay in OVCAR 5 cells Emax ([2]; maximal intracellular cAMP relative to H2-relaxin in the same test occasion): 96%

Compound: CCCC[C@H](NC(=O)CNC(=O)[C@H](CCC(=O)O)NC(=O)C(C)(C)NC(=O)C(C)(C)NC(=O)[C@@H](NC(=O)[C@H](CCC(N)=O)NC(=O)[C@H](C)NC(=O)[C@H](CCCNC(=N)N)NC(=O)[C@@H](NC(=O)[C@H](CCCCN)NC(=O)[C@H](CCC(=O)O)NC(=O)[C@H](CCCNC(=N)N)NC(=O)CNC(=O)[C@H](CCC(=O)O)NC(=O)[C@H](CC(C)C)NC(C)=O)C(C)C)[C@@H](C)CC)C(=O)N[C@@H](CO)C(=O)N[C@@H](CCCNC(=N)N)C(=O)N[C@@H](Cc1c[nH]c2ccccc12)C(=O)N[C@@H](CO)C(=O)NC(C)(C)C(=O)N[C@@H](CCCNC(=N)N)C(=O)N[C@@H](CCCNC(=N)N)C(=O)N[C@@H](CCCNC(=N)N)C(N)=O [compound 55] (Ac-LEGREKVRAQI[Aib][Aib]EG[Nle]SRWS[Aib]RRR-NH2)
- solubility [1, 5]: ≥ 2500 µg/mL
- Emax [2]: 88%
- EC50 [2]: ≤ 5 nM

Compound: CC[C@H](C)[C@H](NC(=O)[C@H](CCC(N)=O)NC(=O)[C@H](C)NC(=O)[C@H](CCCNC(=N)N)NC(=O)[C@@H](NC(=O)[C@H](CCCCN)NC(=O)[C@H](CCC(=O)O)NC(=O)[C@H](CCCNC(=N)N)NC(=O)CNC(=O)[C@H](CCC(=O)O)NC(=O)[C@H](CC(C)C)NC(C)=O)C(C)C)C(=O)NC(C)(C)C(=O)NC(C)(C)C(=O)N[C@@H](CCC(=O)O)C(=O)NCC(=O)N[C@@H](CCC(N)=O)C(=O)N[C@@H](CO)C(=O)N[C@H](C(=O)N[C@@H](Cc1ccc(O)cc1)C(=O)N[C@@H](CO)C(=O)NC(C)(C)C(=O)N[C@@H](CCCNC(=N)N)C(=O)N[C@@H](CCCCN)C(=O)N[C@@H](CCCCN)C(N)=O)[C@@H](C)O [compound 58] (Ac-LEGREKVRAQI[Aib][Aib]EGQSTYS[Aib]RKK-NH2)
- solubility [1, 5]: ≥ 2000 µg/mL
- Emax [2]: 93%

Compound: CC[C@H](C)[C@H](NC(=O)[C@H](CCC(N)=O)NC(=O)[C@H](C)NC(=O)[C@H](CCCNC(=N)N)NC(=O)[C@@H](NC(=O)[C@H](CCCCN)NC(=O)[C@H](CCC(=O)O)NC(=O)[C@H](CCCNC(=N)N)NC(=O)CNC(=O)[C@H](CCC(=O)O)NC(=O)[C@H](CC(C)C)NC(C)=O)C(C)C)C(=O)NC(C)(C)C(=O)NC(C)(C)C(=O)N[C@@H](CCC(=O)O)C(=O)NCC(=O)N[C@@H](CCC(N)=O)C(=O)N[C@@H](CO)C(=O)N[C@H](C(=O)N[C@@H](Cc1ccc(F)cc1)C(=O)N[C@@H](CO)C(=O)NC(C)(C)C(=O)N[C@@H](CCCNC(=N)N)C(=O)N[C@@H](CCCCN)C(=O)N[C@@H](CCCCN)C(N)=O)[C@@H](C)O [compound 59] (Ac-LEGREKVRAQI[Aib][Aib]EGQST[Phe(4-F)]S[Aib]RKK-NH2)
- solubility [1, 5]: ≥ 2400 µg/mL
- Emax [2]: 86%
